# Columns and labels:
# NMDA receptors = conditions: at the concentrations tested here; cited from earlier work
# [1] = system: cells in the GCL of mouse retinas; experiment: NMDA-induced excitotoxic cell death in the GCL of retina-eyecups; format: cell-based
# Procedure: All animal procedures were in compliance with the NIH Guide for the Care and Use of Laboratory Animals and approved by the Institutional Animal Care and Use Committees at SUNY College of Optometry. Experiments were performed on retinas of wild type (WT), connexin knockout (KO) mice (Cx36^−/−, Cx45^−/−, and Cx36^−/−/45^−/− dKO), and their heterozygous (Het) littermates. The methods used to impale and label neurons have been described previously (Hu et al., J Neurosci 23:[…] (2003); Völgyi et al., Journal of Comparative Neurology 512:664-687 (2009)). Briefly, flattened retina-eyecups were placed in a superfusion chamber, which was mounted on the stage of a BX51WI light microscope (Olympus) within a light-tight Faraday cage. […] The retina-eyecups were superfused with a modified, oxygenated Ames medium maintained at 35° C.
# Various methods were employed to produce cell death. (1) Single cell apoptosis: CytC was injected into individual RGCs or Müller cells for 15 minutes after which retinas were incubated for 4 hours in oxygenated Ames medium before fixation. After streptavidin histology, apoptotic cells were detected with an anti-active caspase 3 antibody or with Terminal deoxynucleotidyl transferase dUTP nick end labeling (TUNEL) staining. (2) Excitotoxicity: To assess the contribution of GJs to cell death within populations of RGCs and amacrine cells we conducted parallel experiments in which retinas were preincubated for 20 minutes in normal Ames medium or in one containing the GJ blockers meclofenamic acid (MFA; 50 μM) or 18-beta-glycyrrhetinic acid (18Beta-GA; 25 μM). Both control and drug-treated retinas were then exposed for 1 hour to NMDA (100-300 μM) to induce excitotoxicity followed by 4 hours in the control Ames solution. (3) Retinal ischemia: Transient in vivo retinal ischemia was induced by introducing into the anterior chamber a 33-gauge needle attached to a saline-filled reservoir (0.9% sodium chloride) that was raised above the animal so as to increase intraocular pressure (IOP) to a level […]. MFA (2 μl, 500 μM) was administered intravitreally either 30 minutes before or 3 and 24 hours following the ischemic insult. […]
# Apoptotic and necrotic cell death were assessed by cell counts following: (1) staining with Live/Death Viability Assay (calcein AM/ethidium homodimer (EthD) (Invitrogen); (2) TUNEL, or, (3) labeling for activated caspase 3. For population studies, dead cells were counted manually within 500×500 μm areas (5 areas per retina) from micrographs of whole-mounts using images acquired by confocal microscope. Nuclear cell counts were made per unit length (500 μm) of frozen retinal cross-sections labeled with propidium iodide (2 μg/ml).
smiles,measurement,setting,value
"Cc1ccc(Cl)c(Nc2ccccc2C(=O)O)c1Cl [MFA, meclofenamic acid]",inhibitory effect on NMDA receptors in neurons,NMDA receptors,no inhibitory effect
same,"cell viability, blocker alone",[1],did not affect cell viability
same,cell death in the GCL induced by excitotoxicity,"[1]; retinas preincubated in 18Beta-GA 25 μM or MFA 50 μM, then NMDA 100-300 μM 1 h, vs NMDA alone, p<0.001",significantly reduced

# — US12178846B2, “Methods of using gap junctions as therapeutic targets for the treatment of degenerative disorders of the retina” (The Research Foundation for The State University of New York, priority 2014, dated 2024)
